This note sets out measurements from US12577234B2, “Antagonists of the muscarinic acetylcholine receptor M4” (Vanderbilt University, priority 2017, dated 2026).

pIC50: −log10 of the molar value.

The experiment addresses T1, human mAChR M4 (Homo sapiens, UniProt P08173).
T1 construct: expressed in transfected cells; host or cells: CHO-K1 (ATCC), stably co-expressing chimeric G protein Gqi5
T1 sequence (P08173 1-479): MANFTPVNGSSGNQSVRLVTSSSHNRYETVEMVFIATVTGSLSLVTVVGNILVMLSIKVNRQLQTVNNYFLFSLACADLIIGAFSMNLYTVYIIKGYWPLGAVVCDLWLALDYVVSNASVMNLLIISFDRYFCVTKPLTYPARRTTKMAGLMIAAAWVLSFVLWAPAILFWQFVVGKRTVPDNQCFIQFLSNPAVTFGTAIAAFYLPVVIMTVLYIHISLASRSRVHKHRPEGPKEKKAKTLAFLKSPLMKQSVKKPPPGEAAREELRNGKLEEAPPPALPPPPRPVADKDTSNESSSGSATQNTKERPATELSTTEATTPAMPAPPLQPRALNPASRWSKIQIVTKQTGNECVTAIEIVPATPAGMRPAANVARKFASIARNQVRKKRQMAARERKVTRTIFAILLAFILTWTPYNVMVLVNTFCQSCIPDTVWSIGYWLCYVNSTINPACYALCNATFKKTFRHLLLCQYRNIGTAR
Kind of experiment: mAChR M4 cell-based functional assay (calcium mobilization, EC80 acetylcholine), human M4. To be noted: Table 9; for pIC50: M4/Gqi5/CHO-K1 cells, decrease of EC80 acetylcholine response; for Emin: human M4, % ACh maximum at 30 μM. As for the experimental part: Human or rat M4 cDNA, along with the chimeric G protein Gqi5, were transfected into Chinese hamster ovary (CHO-K1) cells purchased from the American Type Culture Collection using Lipofectamine2000. M4/Gqi5/CHO cells were grown in Ham's F-12 medium containing 10% heat-inactivated fetal bovine serum (FBS), 20 mM HEPES, 500 μg/mL G418 sulfate, and 200 μg/mL Hygromycin B.
For high throughput measurement of agonist-evoked increases in intracellular calcium, CHO-K1 cells stably expressing muscarinic receptors were plated in growth medium lacking G418 and hygromycin at 15,000 cells/20 μL/well in Greiner 384-well black-walled, tissue culture (TC)-treated, clear-bottom plates (VWR). Cells were incubated overnight at 37° C. and 5% CO2. […] Compound master plates were formatted in a 10 point concentration-response curve (CRC) format (1:3 dilutions) in 100% DMSO with a starting concentration of 10 or 1 mM using a BRAVO liquid handler (Agilent). Test compound CRCs were then transferred to daughter plates (240 nL) using the Echo acoustic plate reformatter (Labcyte, Sunnyvale, CA) and then diluted into assay buffer (40 μL) to a 2× stock using a Thermo Fisher Combi (Thermo Fisher Scientific, Waltham, MA).
Calcium flux was measured using the Functional Drug Screening System (FDSS) 6000 or 7000 (Hamamatsu Corporation, Tokyo, Japan) as an increase in the fluorescent static ratio. Compounds were applied to cells (20 μL, 2×) using the automated system of the FDSS at 2 seconds into the protocol and the data were collected at 1 Hz. […] Agonist activity was analyzed as a concentration-dependent increase in calcium mobilization upon compound addition. Positive allosteric modulator activity was analyzed as a concentration-dependent increase in the EC20 acetylcholine response. Antagonist activity was analyzed as a concentration-dependent decrease in the EC80 acetylcholine response; for the purposes of the tables herein, an IC50 (inhibitory concentration 50) was calculated as a concentration-dependent decrease of the response elicited by an EC80 concentration of acetylcholine. Concentration-response curves were generated using a four-parameter logistical equation in XLFit curve fitting software (IDBS, Bridgewater, NJ) for Excel (Microsoft, Redmond, WA) or Prism (GraphPad Software, Inc., San Diego, CA) or the Dotmatics software platform (Dotmatics, Bishop's Stortford, UK).
Background: Calcium assays in cells follow changes in intracellular calcium, usually with a dye or a luminescent sensor.

With `Fc1ccc(Cl)c(-c2ccc(N[C@H]3C[C@@H]4CN(CC56CC7CC(CC(C7)C5)C6)C[C@@H]4C3)nn2)c1` [Compound 26, (3aR,5s,6aS)-2-(1-adamantylmethyl)-N-[6-(2-chloro-5-fluoro-phenyl)pyridazin-3-yl]-3,3a,4,5,6,6a-hexahydro-1H-cyclopenta[c]pyrrol-5-amine], the negative-log IC50 (pIC50) (as a rule, the negative decadic logarithm of the IC50, by convention in mol/L) is 6.89 and the Emin turned out to be 3.20%.
As to `Fc1ccc(Cl)c(-c2ccc(N[C@H]3C[C@@H]4CN(CC5CC6C=CC5C6)C[C@@H]4C3)nn2)c1` (stereo partly drawn) [Compound 27, (3aR,5s,6aS)-2-(5-bicyclo[2.2.1]hept-2-enylmethyl)-N-[6-(2-chloro-5-fluoro-phenyl)pyridazin-3-yl]-3,3a,4,5,6,6a-hexahydro-1H-cyclopenta[c]pyrrol-5-amine], the negative-log IC50 (pIC50) is 8.03 and the Emin turned out to be 5.94%.
`CC(C)(C)CCN1C[C@H]2C[C@H](Nc3ccc(-c4cc(F)ccc4Cl)nn3)C[C@H]2C1` [Compound 28, (3aR,5s,6aS)-N-[6-(2-chloro-5-fluoro-phenyl)pyridazin-3-yl]-2-(3,3-dimethylbutyl)-3,3a,4,5,6,6a-hexahydro-1H-cyclopenta[c]pyrrol-5-amine]: the pIC50 was 8.00 and the Emin was 3.53%.
For `CCC(C)CN1C[C@H]2C[C@H](Nc3ccc(-c4cc(F)ccc4Cl)nn3)C[C@H]2C1` (stereo partly drawn) [Compound 29, (3aR,5s,6aS)-N-[6-(2-chloro-5-fluoro-phenyl)pyridazin-3-yl]-2-(2-methylbutyl)-3,3a,4,5,6,6a-hexahydro-1H-cyclopenta[c]pyrrol-5-amine], the negative-log IC50 (pIC50) was 8.59 and the Emin came out at 7.8%.
With `CCCC(C)CN1C[C@H]2C[C@H](Nc3ccc(-c4cc(F)ccc4Cl)nn3)C[C@H]2C1` (stereo partly drawn) [Compound 30, (3aR,5s,6aS)-N-[6-(2-chloro-5-fluoro-phenyl)pyridazin-3-yl]-2-(2-methylpentyl)-3,3a,4,5,6,6a-hexahydro-1H-cyclopenta[c]pyrrol-5-amine], the pIC50 is 8.00 and the Emin is recorded as 2.88%.
Regarding `Fc1ccc(Cl)c(-c2ccc(N[C@H]3C[C@@H]4CN(CC5CCCCC5)C[C@@H]4C3)nn2)c1` [Compound 31, (3aR,5s,6aS)-N-[6-(2-chloro-5-fluoro-phenyl)pyridazin-3-yl]-2-(cyclohexylmethyl)-3,3a,4,5,6,6a-hexahydro-1H-cyclopenta[c]pyrrol-5-amine], the pIC50 is 8.07 and the Emin amounted to 4.96%.
The matching figures for `Fc1ccc(Cl)c(-c2ccc(N[C@H]3C[C@@H]4CN(CC5CCOCC5)C[C@@H]4C3)nn2)c1` [Compound 32, (3aR,5s,6aS)-N-[6-(2-chloro-5-fluoro-phenyl)pyridazin-3-yl]-2-(tetrahydropyran-4-ylmethyl)-3,3a,4,5,6,6a-hexahydro-1H-cyclopenta[c]pyrrol-5-amine]: 9.15 and 4.92%.
The matching figures for `Fc1ccc(Cl)c(-c2ccc(N[C@H]3C[C@@H]4CN(CC5CCCOC5)C[C@@H]4C3)nn2)c1` (stereo partly drawn) [Compound 33, (3aR,5s,6aS)-N-[6-(2-chloro-5-fluoro-phenyl)pyridazin-3-yl]-2-(tetrahydropyran-3-ylmethyl)-3,3a,4,5,6,6a-hexahydro-1H-cyclopenta[c]pyrrol-5-amine]: 8.92 and 6.3%.
On to `Fc1ccc(Cl)c(-c2ccc(N[C@H]3C[C@@H]4CN(Cc5ccccc5)C[C@@H]4C3)nn2)c1` [Compound 34, (3aR,5s,6aS)-2-benzyl-N-[6-(2-chloro-5-fluoro-phenyl)pyridazin-3-yl]-3,3a,4,5,6,6a-hexahydro-1H-cyclopenta[c]pyrrol-5-amine], for which the negative-log IC50 (pIC50) is 7.77 and the Emin is listed as 8.84%.
Regarding `Cc1cccnc1CN1C[C@H]2C[C@H](Nc3ccc(-c4cc(F)ccc4Cl)nn3)C[C@H]2C1` [Compound 35, (3aR,5s,6aS)-N-[6-(2-chloro-5-fluoro-phenyl)pyridazin-3-yl]-2-[(3-methyl-2-pyridyl)methyl]-3,3a,4,5,6,6a-hexahydro-1H-cyclopenta[c]pyrrol-5-amine], the pIC50 was 8.47 and the Emin is on record as 6.1%.
For `Fc1ccc(Cl)c(-c2ccc(N[C@H]3C[C@@H]4CN(Cc5ccccc5F)C[C@@H]4C3)nn2)c1` [Compound 36, (3aR,5s,6aS)-N-[6-(2-chloro-5-fluoro-phenyl)pyridazin-3-yl]-2-[(2-fluorophenyl)methyl]-3,3a,4,5,6,6a-hexahydro-1H-cyclopenta[c]pyrrol-5-amine], the negative-log IC50 (pIC50) was 7.84 and the Emin was 6.22%.
For `Cc1nn(C)cc1-c1ccc(N[C@H]2C[C@@H]3CN(CC45CC6CC(CC(C6)C4)C5)C[C@@H]3C2)nn1` [Compound 37, (3aR,5s,6aS)-2-(1-adamantylmethyl)-N-[6-(1,3-dimethylpyrazol-4-yl)pyridazin-3-yl]-3,3a,4,5,6,6a-hexahydro-1H-cyclopenta[c]pyrrol-5-amine], the pIC50 is 7.59 and the Emin was found to be 5.65%.
Consider `Cc1cnn(C)c1-c1ccc(N[C@H]2C[C@@H]3CN(CC4CCCCO4)C[C@@H]3C2)nn1` (stereo partly drawn) [Compound 38, (3aR,5s,6aS)-N-[6-(2,4-dimethylpyrazol-3-yl)pyridazin-3-yl]-2-(tetrahydropyran-2-ylmethyl)-3,3a,4,5,6,6a-hexahydro-1H-cyclopenta[c]pyrrol-5-amine], for which the pIC50 was 7.50 and the Emin was found to be 5.45%.
The matching figures for `CC(=O)Nc1ccc(-c2ccc(N[C@@H]3C[C@@H]4CN(CCC(C)(C)C)C[C@@H]4C3)nn2)cc1` [Compound 39, N-[4-[6-[[(3aR,5r,6aS)-2-(3,3-Dimethylbutyl)-3,3a,4,5,6,6a-hexahydro-1H-cyclopenta[c]pyrrol-5-yl]amino]pyridazin-3-yl]phenyl]acetamide]: 5.08 and 26.8%.
As to `Cc1nn(C)cc1-c1ccc(N[C@@H]2C[C@@H]3CN(CCC(C)(C)C)C[C@@H]3C2)c(F)c1F` [Compound 41, (3aR,5r,6aS)-2-(3,3-Dimethylbutyl)-N-[4-(1,3-dimethylpyrazol-4-yl)-2,3-difluoro-phenyl]-3,3a,4,5,6,6a-hexahydro-1H-cyclopenta[c]pyrrol-5-amine], the pIC50 was 6.36 and the Emin was determined as 4.62%.
As for `Cc1nn(C)cc1-c1ccc(N[C@@H]2C[C@@H]3CN(CC4CC5C=CC4C5)C[C@@H]3C2)c(F)c1F` (stereo partly drawn) [Compound 42, (3aR,5r,6aS)-2-(5-bicyclo[2.2.1]hept-2-enylmethyl)-N-[4-(1,3-dimethylpyrazol-4-yl)-2,3-difluoro-phenyl]-3,3a,4,5,6,6a-hexahydro-1H-cyclopenta[c]pyrrol-5-amine], the negative logarithm of the IC50 (pIC50) is 6.37 and the Emin is on record as 4.00%.
For the compound `Cc1nn(C)cc1-c1ccc(N[C@@H]2C[C@@H]3CN(CC4CCCCC4)C[C@@H]3C2)c(F)c1F` [Compound 43, (3aR,5r,6aS)-2-(cyclohexylmethyl)-N-[4-(1,3-dimethylpyrazol-4-yl)-2,3-difluoro-phenyl]-3,3a,4,5,6,6a-hexahydro-1H-cyclopenta[c]pyrrol-5-amine], the pIC50 is 5.92 and the Emin is recorded as 5.25%.
Take `Cc1nn(C)cc1-c1ccc(N[C@@H]2C[C@@H]3CN(CC4CCCCCC4)C[C@@H]3C2)c(F)c1F` [Compound 44, (3aR,5r,6aS)-2-(cycloheptylmethyl)-N-[4-(1,3-dimethylpyrazol-4-yl)-2,3-difluoro-phenyl]-3,3a,4,5,6,6a-hexahydro-1H-cyclopenta[c]pyrrol-5-amine]: the negative logarithm of the IC50 (pIC50) is 5.67 and the Emin came out at 5.01%.
